According to PMC10219169, “Thiopurines Analogues with Additional Ring: Synthesis, Spectroscopic Properties, and Anticancer Potency” (International Journal of Molecular Sciences, 2023):
Where two headings read alike, the source gives them in different places.

Tests used:
HeLa cells = test: CellTiter-Glo cell viability assay (24 h), HeLa; type: cell-based, human; settings: for selectivity index (SI): SI = IC50 normal cell (NIH/3T3) / IC50 cancerous cell (HeLa); for IC50: CellTiter-Glo; for reduction of HeLa cell viability: c = 80 μM
Experimental: (§1) The compounds in this work were tested for their in vitro inhibitory effect on the viability of the HeLa (cancerous) cell line using the CellTiter-Glo® 2.0 cell viability assay (24 h). In addition, the mouse fibroblast NIH/3T3 cell line was used to assess the effects of the compounds on healthy normal cells. […] The 6TG was used as a standard in all tests conducted. The graph of percentage cell viability (y axis) against concentrations of the tested compounds (x axis) and concentration-viability curves with IC50 values from dose-response studies are presented in Figure 4 and Figure 5, respectively.
(§2) The cytotoxicity of the synthesized compounds was tested using cell lines of cervical cancer (HeLa) and mouse fibroblasts (NIH/3T3). Both cell lines were cultured in Dulbecco′s Modified Eagle′s medium (31053, Sigma-Aldrich-Gibco, Thermo Fisher Scientific, Waltham, MA, USA) supplemented with 10% fetal bovine serum (Biowest, Nuaillé, France), 1% Glutamax (Thermo Fisher Scientific, Waltham, MA, USA), and 1% Antibiotic-Antimycotic (Biowest) under standard culture conditions (95% humidity, 5% CO2, at 37 °C). For the purpose of cytotoxicity assays, cells (from both cell lines) were seeded at a density of ca. 5000 cells/well on a 96-well microplate (white, flat bottom), in 4 replicates. 6-Me-TEGuo, 6-Me-TEGua, TEGuo, TEGua, and 6-Me-TEG were tested for their potential cytotoxicity using the following concentrations: 160 (except 6-Me-TEG), 80, 40, 20, 10, 5, and 2.5 μM. Additionally, 6-thioguanine (6TG) in concentrations of 10, 7.5, 5, 2.5, 1.25, and 0.625 μM was tested. All assays included non-treated cells and cells treated with 10% DMSO as negative and positive controls, respectively. The cells were incubated for 24 h under standard culture conditions. Cytotoxicity was measured as cell viability with the CellTiter-Glo® Luminescent Cell Viability Assay (Promega, Madison, WI, USA) according to the manufacturer’s protocol. The microplate luminescence was measured using an Infinite® 200 PRO plate reader (Tecan, Männedorf, Switzerland). Then, the average luminescence of non-labeled cells was equated to 100%, and the remaining values were proportionally normalized. The IC50 values were calculated from the fitting curves using Origin 2022.

[1] = n-octanol/phosphate buffer pH 7.4 partition coefficient (lipophilicity determination); type: physicochemical; settings: 1-octanol/phosphate buffer pH 7.4, read-out: Experimental log Po/w (pH 7.4)
Experimental: The key parameter in drug design and one of the most important properties for all the pharmacokinetic rules is the octanol/water partition coefficient, log Po/w. It is defined as the partition coefficient ratio of a compound between the hydrophobic and hydrophilic phases and corresponds to lipophilicity, which describes drug interactions with membranes and the possibility of their transport across the membrane into the cell. The values of log Po/w were determined experimentally for all the tested compounds and compared with the values theoretically estimated on the SwissADME [23] webserver.
The partition coefficients of the tested compounds were determined for n-octanol/phosphate buffer pH 7.4 at 25 °C and 37 °C. The initial concentrations of the compounds (1.0 × 10^−5 M and 2.0 × 10^−5 M) were measured spectrophotometrically, according to the Beer–Lambert law. The absorbances were recorded at λmax of the appropriate compound against a suitable phosphate buffer blank. A quantity of 1 mL of the solution of the tested compound in the phosphate buffer at pH 7.4 and 1 mL of n-octanol were placed in 2 mL Eppendorf tubes. The samples were shaken manually (2 min), vortexed (5 min), and incubated for 5 h at 25 °C or 37 °C. Then, the tubes were centrifuged (2 min, 10,000 rpm). Both layers were carefully separated, and the absorbances were measured for the aqueous layers at a suitable λmax against the blank of the phosphate buffer at a suitable pH. The given logPo/w values are the mean of three independent experiments (one experiment: 3 samples for 2 concentrations of each compound).

NIH/3T3 cells = test: CellTiter-Glo cell viability assay (24 h), NIH/3T3; type: cell-based; settings: Mus musculus, NIH3T3, NIH/3T3, 24 h
Experimental: as §1, §2

[2] = pKa determination by spectrophotometric method; type: physicochemical; settings: for fraction existing in ionic form: at physiological pH (7.32–7.42); for pKa: spectrophotometric method, buffer solutions of different pH
Experimental: The synthesized compounds, due to their structure, can be hydrogen donors as well as acceptors. Depending on the pH, they can exist in protonated or deprotonated forms. In order to establish which form of the new tricyclic thiopurine derivatives is favored at neutral pH (the conditions under which the in vitro tests will be carried out), their pKa values were determined by spectrophotometric methods (see Table 1 and the Experimental Section). […] This means that at physiological pH (7.32–7.42), about 6% of TEGuo/TEGua exist in ionic form, while 6-Me-TEGuo/6-Me-TEGua only about 4%.
UV-vis absorption spectra were recorded using a Cary 100 spectrophotometer scanning from 800 to 200 nm with 1 nm increments in 1 cm × 1 cm quartz cells. Emission spectra were taken in 1 cm × 1 cm quartz cells on a JASCO FP–8300 spectrofluorometer (excitation and emission slits 5 nm, scan speed 500 nm min^−1) for solutions with absorbance at the excitation wavelength less than 0.1. The fluorescence quantum yields were determined using 10-methylacridinium cation in water (Φ = 1.0) as a standard. The dissociation constants were determined by the spectrophotometric method: in a first step, buffer solutions of different pH were prepared. The pH of solutions was determined by a Mettler Toledo F20 FiveEasy pH meter equipped with a pH electrode LE438 3 in 1 (Mettler Toledo). In the second step, equal volumes of a substance dissolved in water (10 μL) were added to the buffer solution (3 mL). The spectra were recorded with 1 nm resolution over the range from 220 to 550 nm to obtain different spectra around the maximum λ for each compound studied. The purity of all samples was monitored by an HPLC method. HPLC measurements were performed using an Agilent 1200 Rapid Resolution UHPLC system equipped with a reversed-phase column (Eclipse Plus C18, […], 4.6 × 250 mm). A gradient of acetonitrile in water was used as an eluent. The water was doubly distilled and purified using a Milli-Q system (Millipore, Bedford, MA, USA). The fluorescence lifetime measurements were recorded using a Fluorescence Lifetime Spectrometer (FluoTime 300 from PicoQuant) with a time-correlated single-photon counting detection system equipped with a 378 nm laser as its excitation source. All experiments were carried out in a standard quartz cell (1 cm × 1 cm).

[3] = pKa* of singlet excited state from pH-dependent fluorescence emission; type: physicochemical; settings: determined from emission from the singlet excited state
Experimental: At pH 4.0, as was the case for the absorbance at 352 nm, the intensity and shape of the fluorescence signal were similar to those observed in water solution for all the compounds tested. However, in the case of basic pH, a two-fold increase in the emission intensity and a blueshift of the emission maximum were observed.
UV-vis absorption spectra were recorded using a Cary 100 spectrophotometer scanning from 800 to 200 nm with 1 nm increments in 1 cm × 1 cm quartz cells. Emission spectra were taken in 1 cm × 1 cm quartz cells on a JASCO FP–8300 spectrofluorometer (excitation and emission slits 5 nm, scan speed 500 nm min^−1) for solutions with absorbance at the excitation wavelength less than 0.1. The fluorescence quantum yields were determined using 10-methylacridinium cation in water (Φ = 1.0) as a standard. The dissociation constants were determined by the spectrophotometric method: in a first step, buffer solutions of different pH were prepared. The pH of solutions was determined by a Mettler Toledo F20 FiveEasy pH meter equipped with a pH electrode LE438 3 in 1 (Mettler Toledo). […] The spectra were recorded with 1 nm resolution over the range from 220 to 550 nm to obtain different spectra around the maximum λ for each compound studied. The purity of all samples was monitored by an HPLC method. […]

[4] = n-octanol/phosphate buffer pH 7.4, pH 7.4, 25 °C
[5] = n-octanol/phosphate buffer pH 7.4, pH 7.4, 37 °C

Compound | logP at 5 h [1, 4] | logP at 5 h [1, 5] | IC50 (HeLa cells; Homo sapiens, HeLa, 24 h) [µM] | fraction existing in ionic form [2] | pKa [2] | IC50 (HeLa cells; HeLa, 24 h) [µM] | pKa* (singlet excited state) [3] | effect on HeLa cell viability (HeLa cells; HeLa, concentration range 2.5 μM to 80 μM, 24 h) | selectivity index (SI) (HeLa cells) | IC50 (NIH/3T3 cells) [µM] | reduction of HeLa cell viability (HeLa cells; HeLa, 24 h)
CC(=O)OC[C@H]1O[C@@H](n2cnc3c(=S)n4cc(C)[nH]c4nc32)[C@H](OC(C)=O)[C@@H]1OC(C)=O [6-Me-TEG, 2′,3′,5′-tri-O-acetyl-6-methyl-9-thio-1,N^2-ethenoguanosine] | 0.8 | 0.75 | – | – | – | – | – | no effect on HeLa cell viability was observed | – | – | –
Nc1nc2nc[nH]c2c(=S)[nH]1 [6TG, 6-thioguanine, reference compound] | – | – | – | – | – | – | – | – | > 1 | – | –
S=c1c2nc[nH]c2nc2[nH]ccn12 [TEGua, 9-thio-1,N^2-ethenoguanine] | 0.58 | 0.52 | 137 | about 6% | 8.6 | – | – | – | – | 97.9 | –
Cc1cn2c(=S)c3nc[nH]c3nc2[nH]1 [6-Me-TEGua, 6-methyl-9-thio-1,N^2-ethenoguanine] | 0.75 | 0.7 | 78.2 | about 4% | 8.8 | < 100 | – | – | – | 51.6 | up to 57%

Further lines, with some results ahead:

logP at 5 h [1, 4] | logP at 5 h [1, 5] | IC50 (HeLa cells; Homo sapiens, HeLa, 24 h) [µM] | fraction existing in ionic form [2] | pKa [2] | IC50 (HeLa cells; HeLa, 24 h) [µM] | pKa* (singlet excited state) [3] | Compound | effect on HeLa cell viability (HeLa cells; HeLa, concentration range 2.5 μM to 80 μM, 24 h) | selectivity index (SI) (HeLa cells) | IC50 (NIH/3T3 cells) [µM] | reduction of HeLa cell viability (HeLa cells; HeLa, 24 h)
-0.61 | -0.67 | 55.8 | about 4% | 8.8 | < 100 | 8.9 | Cc1cn2c(=S)c3ncn([C@@H]4O[C@H](CO)[C@@H](O)[C@H]4O)c3nc2[nH]1 [6-Me-TEGuo, 6-methyl-9-thio-1,N^2-ethenoguanosine] | – | > 1 | 63.8 | up to 42%
-0.89 | -0.96 | 80.2 | about 6% | 8.6 | < 100 | 8.7 | OC[C@H]1O[C@@H](n2cnc3c(=S)n4cc[nH]c4nc32)[C@H](O)[C@@H]1O [TEGuo, 9-thio-1,N^2-ethenoguanosine] | – | > 1 | 83.6 | –
